Reference: US12527768B2, “Compositions comprising an anti-inflammatory drug and a dicer activator for use in the treatment of neuronal diseases” (NeuroSense Therapeutics Ltd., priority 2017, dated 2026)
Values joined by “and” are separate entries in the source; they are usually repeats but may differ in a detail not shown here. Equal entries are not always repeated. “Also recorded” adds a separate entry of the source.

How the values were obtained:
[1] = system: chronic electrode-implanted rats; settings: cited from earlier work; for EEG and behavior after intraventricular injection: relatively high dose
[2] = system: SOD1 G93R mutant zebrafish larvae; experiment: Toxicity analysis of larvae (morphology, cardiovascular system, behavior, mortality); type: in vivo, zebrafish (Danio rerio)
Protocol: (§1) Treatment protocol SOD1 G93R mutant or WT fish were collected and raised according to accepted and approved protocols, see Westerfield M. The Zebrafish Book: a Guide for the Laboratory Use of Zebrafish (Danio rerio) 2000, incorporated herein as reference. Larvae's morphology was observed (heart rate, overall morphology and behavior) at each day.
Toxicity analysis Fish were observed during the day of administration and the following days to observe toxicity. Acute toxicity was evaluated for apoptosis/necrosis and cardiovascular system abnormalities (heart rate, morphology, hemorrhage and edema). Head, eyes and overall morphological and behavioral toxicity were recorded according to accepted procedures^28.

[3] = system: SOD1 G93R mutant zebrafish larvae; experiment: Behavioral analysis (DanioVision): locomotor activity, distance moved; type: in vivo, zebrafish (Danio rerio); settings: for distance moved, elevation compared to non-treated SOD1 mutant, whole period of measurement: 6 dpf larvae; for distance moved compared to non-treated SOD1 mutant, whole experiment: 10 μM in swimming water; for effect on locomotor activity during all three experimental phases: spontaneous swimming, light/dark challenge, recovery from challenge
Description: as §1
Two-hundred and forty (240) larvae were selected from the same laying batch to be introduced to three distinct treatments and a control (n=60 per each treatment). First and second treatments were conducted at 3 and 5 days post fertilization (dpf), respectively, when the blood brain barrier (BBB) is fully closed, and the motor neurons (MNs) and neuromuscular junctions (NMJs) are fully developed. The materials were administrated in the swimming water (DB). At day 6, larvae were taken to behavioral analysis using the automated DanioVision™ system. Following analysis, larvae were fixed and whole-mount immunohistochemistry procedure was conducted to be used for high resolution morphological analysis. Treatment protocol is detailed in FIG. 1.
Behavioral analysis DanioVision™, an automated high-throughput tracking system of zebrafish larvae from Noldus Information Technology (Wageningen, the Netherlands), including control of light and dark conditions was used for the measurements and analysis of the results. Each single larvae was put in a single well, with the same volume of swimming water to ensure uniform background. Each animal was tested for its x,y position using dynamic subtraction 30 times per second. The distance each larvae moved in mm was calculated from the x,y position and averaged per time bin of 1 minute (average of 1800 measurements per each 1 minute). The behavioral profile was measured in 3 phases according to changes in environment that we applied, to introduce additional muscle and neurological stress. Spontaneous swimming, light/dark challenge (opto-kinetic response) and recovery from challenge behaviors were recorded and analyzed. All animals from the same treatment: wild type (WT), SOD1 mutant non-treated or treated were averaged per time bin of 1 minute to examine their reaction to additional stress, and then calculated for the whole period of time to get a relative number compared to the non-treated SOD1 mutant swimming behavior. Statistical analysis used was paired Student's t-tests (two-tailed) with two-sample assuming unequal variances. All P-values reported are two-tailed and the significance level was set at 0.05 (*), 0.01 to 0.001 (**) and below 0.001 (***).

[4] = system: cytochrome P450 (CYP450) 2C9 and 3A4; settings: cited from earlier work
RNAi = settings: cited from earlier work
Pseudomonas aeruginosa = settings: cited from earlier work
ALS mouse models = settings: enhancement of DICER activity; cited from earlier work
[5] = system: inhibitory interneurons of SOD1 mutants; settings: 1 μM; cited from earlier work
ALS patients = settings: clinical trial; cited from earlier work
[6] = 100 μM in swimming water, 0.1% DMSO
[7] = 100 μM, recovery from challenge phase
[8] = 100 μM, spontaneous swimming phase

CC(=O)Oc1ccccc1C(=O)O.NCCCCC(N)C(=O)O (racemic) [aspirin DL-lysine]
EEG and behavior after intraventricular injection [1]: spike and wave complex in EEG without showing remarkable behavioral changes

Cc1ccc(-c2cc(C(F)(F)F)nn2-c2ccc(S(N)(=O)=O)cc2)cc1 [Celecoxib]
toxicity at high concentration ([2]; 30 μM, 0.3% DMSO, SOD1 mutants and WT): cardiovascular toxicity and death
toxicity at lower concentrations ([2]; below 10 μM (0.3% DMSO) / 5 μM (0.1% DMSO)): no toxicity was evident
distance moved, elevation compared to non-treated SOD1 mutant, whole period of measurement ([3]; 1 μM in swimming water): 6%
locomotor effect of Celecoxib at 5 μM ([3]; 5 μM, 0.1% DMSO background): subtle locomotor decline; also recorded: reduction in locomotor ability
locomotor effect of Celecoxib at 10 μM ([3]; 10 μM, 0.3% DMSO background): subtle locomotor decline; also recorded: Subtle locomotor reduction
metabolism in vivo [4]: oxidized by cytochrome P450 (CYP450) 2C9 and 3A4 to the inactive metabolite hydroxycelecoxib

O=C(O)c1cn(C2CC2)c2cc(N3CCNCC3)c(F)cc2c1=O [Ciprofloxacin]
RNAi-enhancing activity (RNAi): substantial RNAi-enhancing activity
distance moved compared to non-treated SOD1 mutant, whole experiment ([3]; 0.1% DMSO): did not significantly affect locomotor activity; also recorded: not changed
effect on locomotor activity during all three experimental phases ([3]; 10 μM): nearly no effect
locomotor activity of Ciprofloxacin compared to Enoxacin treatment ([3]; 100 μM each, spontaneous swimming and recovery from challenge): elevated locomotor activity compared to Enoxacin treatment
distance moved, elevation compared to non-treated SOD1 mutant, whole period of measurement [3, 6]: 18% and 17.8%
locomotor activity, increase vs non-treated SOD1 mutant, recovery from challenge [3, 7]: 33.5%
locomotor activity, increase vs non-treated SOD1 mutant, spontaneous swimming [3, 8]: 26.2%
effect on locomotor activity under dark conditions ([3]; 1, 10, 50, 100, 200 and 500 μM): nearly no effect
locomotor activity in the phase of recovery from stress, dose response ([3]; 50, 100, 200 and 500 μM, second phase of light): dose dependent curve that eventually ended in a plateau
effect on spontaneous swimming at high concentrations ([3]; 200 and 500 μM, spontaneous swimming phase): did not cause elevation in spontaneous swimming
most potent concentration in affecting locomotor activity ([3]; tested 1-500 μM): 100 µM
potency against Pseudomonas aeruginosa among quinolones (Pseudomonas aeruginosa): most potent quinolone

CCn1cc(C(=O)O)c(=O)c2cc(F)c(N3CCNCC3)nc21 [Enoxacin]
drug induced effects in morphology or mortality ([2]; Enoxacin 10 μM and 100 μM, 0.1% DMSO): no drug induced effects in morphology or mortality were observed
effect in two independent ALS mouse models (ALS mouse models): beneficial in vivo
epileptogenic activity, EEG ([1]; intraventricular, 50 and 100 micrograms): potent epileptogenic activity
distance moved compared to non-treated SOD1 mutant, whole experiment ([3]; 0.1% DMSO): not changed
effect on locomotor activity during all three experimental phases ([3]; 10 μM): nearly no effect
distance moved, elevation compared to non-treated SOD1 mutant, whole period of measurement [3, 6]: 20%
distance moved, elevation compared to non-treated SOD1 mutant, whole period of measurement ([3]; 100 μM in swimming water, 0.1% DMSO, listed as enoxacin): 19.9%
locomotor activity, increase vs non-treated SOD1 mutant, light/dark challenge ([3]; 100 μM, light/dark challenge phase): 21%
locomotor activity, increase vs non-treated SOD1 mutant, recovery from challenge [3, 7]: 17.6%
locomotor activity, increase vs non-treated SOD1 mutant, spontaneous swimming [3, 8]: 20.1%

CCOC(=O)Cc1ccc(-c2ccccc2)cc1 [Ferubinac ethyl]
EEG and behavior after intraventricular injection [1]: spike and wave complex in EEG without showing remarkable behavioral changes

Nc1nc2ccc(OC(F)(F)F)cc2s1 [Riluzole]
neuronal stress in inhibitory interneurons [5]: reduced
effect on ALS disease progression (ALS patients): modestly slowed ALS progression
distance moved, elevation compared to non-treated SOD1 mutant, whole period of measurement ([3]; 1 μM in swimming water): 36% and 36.8%
locomotor activity, increase vs non-treated SOD1 mutant, light/dark challenge ([3]; 1 μM, light/dark challenge phase (10-20 min)): 32%
locomotor activity, increase vs non-treated SOD1 mutant, recovery from challenge ([3]; 1 μM, recovery from challenge phase (last 10 minutes)): 39.7%
locomotor activity, increase vs non-treated SOD1 mutant, spontaneous swimming ([3]; 1 μM, spontaneous swimming phase (0-10 min)): 38%
